Earlier results, collected in patent publication US20060167044A1, “Piperidine derivatives and their use as anti-inflammatory agents” (priority 2004, published 2006).

Tested on: UUO kidneys
Settings: mouse, in vivo

## C[C@@H]1CN(Cc2ccc(F)cc2)CCN1C(=O)COc1ccc(Cl)cc1NC(N)=O [BX 471]
  CD8+/CCR5+ T cells (FACS analysis): comparable reduction
